Patent EP0388528B1, “Carboximidamide derivatives” (KIRIN BEER KABUSHIKI KAISHA, priority 1988, dated 1990)

Columns and labels:
isolated rat aortae = test: Vasorelaxing effect on the isolated rat aortae (Referential Example 1)-1); conditions: inhibition of contraction induced by 40 mM KCl
Experimental: The compounds of the present invention were tested for their physiological activities by measuring the tension of isolated rat aortae isometrically.
Thoracic aortae obtained from male Wistar rats (weighing 250-350 g) were cut into ring segments about 3 mm long. The ring preparation was placed in an organ bath filled with 10 ml of Krebs-Ringer solution that was maintained at 37°C and gassed with 95% O₂ - 5% CO₂.
The preparation in the organ bath was allowed to equilibrate under resting tension of 1 g. After equilibration period, the solution in the organ bath was replaced with an isotonic solution containing 40 mM KCl to contract the preparation.
After the contraction induced by KCl had reached plateau, the concentration-response relationship for the test compound was determined by means of cumulative addition.
The relaxation response of the test compounds was expressed as the percent inhibition of the contraction induced by KCl, and the IC₅₀ value, which is a concentration required for inhibiting the contraction induced by KCl to an extent of 50%, was calculated by the Probit method from the concentration-response curve.

potassium channel = test: Potassium channel activating effect (86Rb efflux from rat thoracic aorta); conditions: compound 10⁻⁴ M for 8 minutes, percent of the efflux before application
Experimental: Male Wistar rats (weighing 250-350 g) were dehematized to death, and thoracic aortae were rapidly isolated. The aorta was opened along the longitudinal axis to prepare a flat sheet. The preparation was loaded with ⁸⁶Rb in the Krebs-Ringer solution which contained ⁸⁶Rb in the concentration of 10 µCi/ml and was gassed with 95% O₂ - 5% CO₂ at 37°C for 2 hours. The preparation was then transferred to a Krebs-Ringer solution not containing ⁸⁶Rb, and washed to remove excess radioactivity for 18 minutes by refreshing the solution every 2 minutes. Finally the preparation was placed into a Krebs-Ringer solution containing each compound (10⁻⁴ M) for 8 minutes.
The amount of ⁸⁶Rb efflux from the preparation in each period was determined with a γ-counter.
The increment in efflux rate during the application of the compound was expressed as percent of the efflux before the application of the compound.

beagles = test: Hemodynamic profile in beagles (intraduodenally); format: in vivo; conditions: intraduodenal 100 µg/kg, percent change from pretreatment; for Total Peripheral Resistance: mean aortic blood pressure / (coronary + aortic blood flow)
Experimental: The aortic blood pressure, the heart rate and the coronary blood flow of the beagles anesthetized with pentobarbital were determined in the same manner as in the aforementioned Example 1)-7, and the aortic blood flow was measured with an electromagnetic flowmeter (MFV-3100, manufactured by Nihon Kohden) by attaching a probe at the origin of the aorta [test compound: N-cyano-N′-(2-nitroxyethyl)-3-pyridinecarboximidamide (compound (13))]. A nelaton's tube was inserted into the duodenum via a small abdominal incision for administration of the compound (13) (100 µg/kg). Time course changes in respective measurement items were expressed as percent changes from the pretreatment values. Total peripheral resistance was calculated by dividing the mean aortic blood pressure with the sum of the coronary blood flow and the aortic blood flow.

N#CNC(=NCCO[N+](=O)[O-])c1cccnc1 [Compound (13), N-cyano-N'-(2-nitroxyethyl)-3-pyridinecarboximidamide]
IC50 (isolated rat aortae): 5.1 µM
Increment of Efflux (%) (potassium channel): 213.53%
Aortic Blood Flow (beagles; 1 min after dosage): 10.0%
Coronary Blood Flow (beagles; 1 min after dosage): 1.8± 1.8%
Heart Rate (beagles; 1 min after dosage): 0%
Mean Aortic Blood Pressure (beagles; 1 min after dosage): -9.8± 1.0%
Total Peripheral Resistance (beagles; 1 min after dosage): -17.8%
Aortic Blood Flow (beagles; 2 min after dosage): 12.2%
Coronary Blood Flow (beagles; 2 min after dosage): 14.4± 2.1%
Heart Rate (beagles; 2 min after dosage): 1.6± 1.6%
Mean Aortic Blood Pressure (beagles; 2 min after dosage): -14.3± 1.3%
Total Peripheral Resistance (beagles; 2 min after dosage): -24.1%
Aortic Blood Flow (beagles; 3 min after dosage): 15.1%
Coronary Blood Flow (beagles; 3 min after dosage): 38.4± 9.1%
Heart Rate (beagles; 3 min after dosage): 0%
Mean Aortic Blood Pressure (beagles; 3 min after dosage): -21.2± 1.2%
Total Peripheral Resistance (beagles; 3 min after dosage): -33.7%
Aortic Blood Flow (beagles; 5 min after dosage): 27.0%
Coronary Blood Flow (beagles; 5 min after dosage): 121.5± 22.0%
Heart Rate (beagles; 5 min after dosage): -12.1± 5.1%
Mean Aortic Blood Pressure (beagles; 5 min after dosage): -35.0± 2.0%
Total Peripheral Resistance (beagles; 5 min after dosage): -49.5%
Aortic Blood Flow (beagles; 7.5 min after dosage): 25.5%
Coronary Blood Flow (beagles; 7.5 min after dosage): 142.3± 6.5%
Heart Rate (beagles; 7.5 min after dosage): -17.5± 4.1%
Mean Aortic Blood Pressure (beagles; 7.5 min after dosage): -37.0± 2.9%
Total Peripheral Resistance (beagles; 7.5 min after dosage): -50.3%
Aortic Blood Flow (beagles; 10 min after dosage): 15.0%
Coronary Blood Flow (beagles; 10 min after dosage): 112.8± 10.6%
Heart Rate (beagles; 10 min after dosage): -21.1± 4.4%
Mean Aortic Blood Pressure (beagles; 10 min after dosage): -42.0± 2.9%
Total Peripheral Resistance (beagles; 10 min after dosage): -51.1%
Aortic Blood Flow (beagles; 20 min after dosage): 10.7%
Coronary Blood Flow (beagles; 20 min after dosage): 64.2± 15.4%
Heart Rate (beagles; 20 min after dosage): -26.1± 5.5%
Mean Aortic Blood Pressure (beagles; 20 min after dosage): -49.4± 3.1%
Total Peripheral Resistance (beagles; 20 min after dosage): -55.3%
Aortic Blood Flow (beagles; 30 min after dosage): 8.3%
Coronary Blood Flow (beagles; 30 min after dosage): 60.1± 15.1%
Heart Rate (beagles; 30 min after dosage): -26.5± 4.6%
Mean Aortic Blood Pressure (beagles; 30 min after dosage): -49.0± 3.7%
Total Peripheral Resistance (beagles; 30 min after dosage): -55.8%
Aortic Blood Flow (beagles; 60 min after dosage): 0.5%
Coronary Blood Flow (beagles; 60 min after dosage): 28.0± 11.6%
Heart Rate (beagles; 60 min after dosage): -10.0± 1.4%
Mean Aortic Blood Pressure (beagles; 60 min after dosage): -36.5± 7.3%
Total Peripheral Resistance (beagles; 60 min after dosage): -44.3%
